Results: ChEMBL document CHEMBL1132165, “Analogues of neuroactive polyamine wasp toxins that lack inner basic sites exhibit enhanced antagonism toward a muscle-type mammalian nicotinic acetylcholine receptor” (J Med Chem, 1999)

How the values were obtained:
Details in all cases: TE-671
[1] = molecular target: Acetylcholine receptor subunit alpha (Homo sapiens) (UniProt P02708)
Description: Proteolytic properties against human muscle type nicotinic Acetylcholine receptor(nAchr) from TE671 cells, expressed as acidity constant (pKa2)

[2] = molecular target: Acetylcholine receptor subunit alpha (Homo sapiens) (UniProt P02708); remark: listed apart in the source
Description: Proteolytic properties against human muscle type nicotinic Acetylcholine receptor(nAchr) from TE671 cells, expressed as acidity constant (pKa3)

[3] = molecular target: Acetylcholine receptor subunit alpha (Homo sapiens) (UniProt P02708); remark: listed apart in the source
Description: Proteolytic properties against human muscle type nicotinic Acetylcholine receptor(nAchr) from TE671 cells, expressed as acidity constant (pKa1)

[4] = molecular target: Acetylcholine receptor subunit alpha (Homo sapiens) (UniProt P02708); assay: […] properties against human muscle type nicotinic Acetylcholine receptor (nAchr) from TE671 cells, expressed as acidity constant (pKa1); assay type: functional, cell-based

Acetylcholine receptor subunit alpha (Homo sapiens), sequence (P02708 whole entry): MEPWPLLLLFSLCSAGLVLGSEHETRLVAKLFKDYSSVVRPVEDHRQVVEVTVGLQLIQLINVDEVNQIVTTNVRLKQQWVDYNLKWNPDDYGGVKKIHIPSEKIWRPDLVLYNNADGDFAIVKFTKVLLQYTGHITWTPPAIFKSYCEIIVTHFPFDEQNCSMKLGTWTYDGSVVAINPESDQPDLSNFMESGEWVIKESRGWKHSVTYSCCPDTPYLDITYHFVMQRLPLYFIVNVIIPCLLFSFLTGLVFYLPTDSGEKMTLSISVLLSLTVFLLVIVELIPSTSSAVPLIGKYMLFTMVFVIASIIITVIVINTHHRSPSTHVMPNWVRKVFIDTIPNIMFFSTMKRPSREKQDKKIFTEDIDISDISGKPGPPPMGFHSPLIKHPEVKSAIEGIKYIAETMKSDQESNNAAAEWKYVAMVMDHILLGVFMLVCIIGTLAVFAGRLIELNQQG

CCCC(=O)NC(Cc1ccc(O)cc1)C(=O)NCCCCCCCCNCCCN (stereo unspecified)
pKa2 [1]: 10.2
pKa3 [2]: 11.4
pKa1 [3]: 9.32

CCCC(=O)NC(Cc1ccc(O)cc1)C(=O)NCCCOCCCCNCCCN (stereo unspecified)
pKa2 [1]: 10.3
pKa3 [2]: 11.3
pKa1 [3]: 9.23

CCCC(=O)NC(Cc1ccc(O)cc1)C(=O)NCCCNCCCCCCCCN (stereo unspecified)
pKa2 [1]: 10.4
pKa3 [2]: 11.3
pKa1 [3]: 9.71

CCCC(=O)NC(Cc1ccc(O)cc1)C(=O)NCCCCCCCCCCCCN (stereo unspecified)
pKa2 [1]: 11.3
pKa1 [4]: 10.3

CCCC(=O)NC(Cc1ccc(O)cc1)C(=O)NCCCOCCCCOCCCN (stereo unspecified)
pKa2 [1]: 10.9
pKa1 [4]: 10

CCCC(=O)NC(Cc1ccc(O)cc1)C(=O)NCCCNCCCCOCCCN (stereo unspecified)
pKa2 [1]: 10.2
pKa3 [2]: 10.9
pKa1 [3]: 9.47
